# Source: PubChem BioAssay (NCI)
# Values joined by “and” are separate entries in the source; they are usually repeats but may differ in a detail not shown here. Equal entries are not always repeated.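 Briefly, cells in 96-well plates were exposed to five compound concentrations for 48 h, and endpoints were estimated by linear interpolation. GI50 is the concentration that inhibits growth by half. The concentration for full growth arrest is given as TGI.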
# Columns and labels:
# Test in all cases: inhibition of tumour cell growth, NCI panel, 48 h
# SF-268 CNS = tested on: SF-268 CNS
# SR leukemia = tested on: SR leukemia
# SK-MEL-28 melanoma = tested on: SK-MEL-28 melanoma
# A549 NSCLC = tested on: A549 NSCLC
# COLO 205 colon = tested on: COLO 205 colon
# TK-10 renal = tested on: TK-10 renal
# M14 melanoma = tested on: M14 melanoma
# NCI/ADR-RES ovarian = tested on: NCI/ADR-RES ovarian
# KM12 colon = tested on: KM12 colon
# SF-539 CNS = tested on: SF-539 CNS
# HS 578T breast = tested on: HS 578T breast
# EKVX NSCLC = tested on: EKVX NSCLC
# SK-MEL-2 melanoma = tested on: SK-MEL-2 melanoma
# LOX IMVI melanoma = tested on: LOX IMVI melanoma
# CAKI-1 renal = tested on: CAKI-1 renal
# HT29 colon = tested on: HT29 colon
SMILES,TGI (SF-268 CNS) [µM],TGI (SR leukemia) [µM],TGI (SK-MEL-28 melanoma) [µM],TGI (A549 NSCLC) [µM],TGI (COLO 205 colon) [µM],TGI (TK-10 renal) [µM],TGI (M14 melanoma) [µM],TGI (NCI/ADR-RES ovarian) [µM],TGI (KM12 colon) [µM],TGI (SF-539 CNS) [µM],TGI (HS 578T breast) [µM],TGI (EKVX NSCLC),TGI (SK-MEL-2 melanoma) [µM],TGI (LOX IMVI melanoma) [µM],TGI (CAKI-1 renal) [µM],TGI (HT29 colon) [µM],GI50 (EKVX NSCLC) [µM]
COc1ccc2[nH]c3c(c2c1)CCn1c-3nc2ccccc2c1=O,> 25,> 25,> 25,> 25,> 25,> 25,> 25,> 25,> 25,> 25,> 25,> 25 µM,–,–,–,–,–
COc1ccc(NC2Oc3cc4c(cc3C(c3cccc(OC)c3OC)C2C)OCO4)cc1 (stereo unspecified),> 100,12,85.7,> 100,19.2,> 100,> 100,–,> 100,> 100,61.5,> 100 µM,70.2,> 100,> 100,> 100,–
CN(CCO)c1nc2c(c(=O)[nH]1)CCC2,> 100,> 100,> 100,> 100,> 100,> 100,> 100,–,> 100,> 100,–,> 100 µM,> 100,> 100,> 100,> 100,–
CC(=O)C1=CSC2[C@H](NC(=O)Cc3ccccc3)C(=O)N2C1C(=O)OC(c1ccccc1)c1ccccc1 (stereo partly specified),> 100,> 100,> 100,> 100,> 100,> 100,> 100,–,> 100,> 100,–,> 100 µM,> 100,–,> 100,> 100,–
CCOC1(COP(=O)(OCc2ccccc2)OCc2ccccc2)COC(COP(=O)(OCc2ccccc2)OCc2ccccc2)(OCC)CO1 (stereo unspecified),> 100,> 100,> 100,> 100,> 100,> 100,> 100,–,> 100,> 100,–,9.43 µM,> 100,> 100,> 100,> 100,–
CNC(=O)N1CN(c2ccccc2)C2(CCN(CCCC(=O)c3ccc(F)cc3)CC2)C1=O,> 100,69.7,38.4,> 100,22.3,49.5,40.8,36.6,45.9,34,–,52.5 µM,–,37.1,> 100,26.9,–
N#CC(C#N)=Cc1ccc2c(c1)OC(Cl)O2 (stereo unspecified),66.4,–,36.9,> 100,52,68.1,55.7,> 100,39.9,38.6,–,79.5 µM,37.6,38.2,> 100,44.9,–
CCC1(CC)CC(=NNS(=O)(=O)c2ccc(C)cc2)C1,> 100,–,> 100,> 100,> 100,> 100,> 100,> 100,> 100,> 100,> 100,> 100 µM,> 100,> 100,> 100,> 100,–
Cc1ccc(/C=N/Nc2cnccn2)s1,> 100,–,> 100,> 100,> 100,> 100,> 100,> 100,> 100,> 100,> 100,> 100 µM,> 100,> 100,> 100,> 100,–
CCOC(=O)c1nc2ccc([N+](=O)[O-])cc2c2c1CCO2,> 100,–,> 100,> 100,> 100,> 100,> 100,–,> 100,> 100,–,> 100 µM,> 100,> 100,> 100,> 100,–
CC12NN=NC1C(=O)NC2=O (stereo unspecified),> 100,> 100,> 100,> 100,> 100,> 100,–,–,> 100,> 100,–,> 100 µM,> 100,> 100,> 100,> 100,–
CC1CC[C@@H](C(C)C)[C@H](Oc2nnc(C3OC(CO)C(O)C3O)o2)C1 (stereo partly specified),> 100,–,–,> 100,> 100,> 100,–,> 100,> 100,> 100,–,> 100 µM,> 100,> 100,> 100,> 100,–
C=CCc1cc(OC)c2c(c1)C(O)CC(c1ccccc1)O2 (stereo unspecified),> 100,> 100,> 100,> 100,> 100,> 100,> 100,–,> 100,> 100,–,> 100 µM,> 100,–,> 100,> 100,–
COc1cc2c(c(OC)c1OC)C(=O)[C@H](O)[C@H]2NC(N)=O,> 100,–,> 100,> 100,> 100,> 100,> 100,> 100,> 100,> 100,> 100,> 100 µM,–,> 100,> 100,> 100,–
CCOC(=O)CSc1nc(-c2ccccc2)c(C#N)c(=O)[nH]1,> 100,> 100,> 100,> 100,> 100,> 100,> 100,> 100,> 100,> 100,> 100,> 100 µM,> 100,–,> 100,> 100,–
CCOC(=O)c1sc2c(c1OC(=O)c1cccs1)c(=O)n(-c1ccccc1)c(=S)n2-c1ccccc1,> 100,–,35.4,38.8,35.6,> 100,33.4,31.4,42.3,36,83,79.5 µM,–,36.3,75.8,17.2,–

SMILES,TGI (SF-268 CNS) [µM],TGI (SR leukemia) [µM],TGI (SK-MEL-28 melanoma) [µM],TGI (A549 NSCLC) [µM],TGI (COLO 205 colon) [µM],TGI (TK-10 renal) [µM],TGI (M14 melanoma) [µM],TGI (NCI/ADR-RES ovarian) [µM],TGI (KM12 colon) [µM],TGI (SF-539 CNS) [µM],TGI (HS 578T breast) [µM],TGI (EKVX NSCLC),TGI (SK-MEL-2 melanoma) [µM],TGI (LOX IMVI melanoma) [µM],TGI (CAKI-1 renal) [µM],TGI (HT29 colon) [µM],GI50 (EKVX NSCLC) [µM]
C1=NCCNCCN=Cc2ccc(cc2)OCc2cccc(n2)COc2ccc1cc2,83.9,> 100,> 100,> 100,> 100,–,> 100,> 100,> 100,> 100,> 100,> 100 µM,> 100,–,> 100,> 100,–
CC(=O)OCC(OC(C)=O)C(OC(C)=O)C(C=NN(C(C)=O)S(=O)(=O)c1ccc(/C=C2\NC(=O)NC2=O)cc1)OC(C)=O (stereo unspecified),> 100,> 100,–,> 100,> 100,> 100,> 100,> 100,–,> 100,> 100,> 100 µM,> 100,–,> 100,> 100,–
COc1cc2cc(C(=O)N3CC(CCl)c4ccc(O)cc43)[nH]c2c(OC)c1OC (stereo unspecified),0.145,> 100,0.00601,1.25,0.0451,22.4,0.12,–,0.0273,0.00881,0.0588,0.35 µM and 0.749 µM,0.00468,0.136,0.0201,0.0107,0.285
CCOc1ccc2nc(NC(=O)c3c/c(=N\NC(=O)C[N+](C)(C)C)c4ccc(O)cc4o3)sc2c1,11.6,17.3,13,7.84,20.7,36.5,3.1,–,19.2,11,–,11.9 µM,6.22,5.73,18.6,13,–
O=C(Cn1c2c(c3ccccc31)CCCC2)NC1CCCCC1,> 100,–,> 100,> 100,> 100,> 100,> 100,> 100,–,> 100,> 100,> 100 µM,> 100,> 100,> 100,> 100,–
O=c1cc(-c2ccccc2)[nH]c2cc(O)ccc12,> 100,62.9,> 100,81.8,32.3,> 100,39,–,50.7,> 100,–,> 100 µM,94.9,34.6,71.6,46.1,–
CCOC(=O)C1=C(O)C(=O)c2ccsc2C1=O,> 100,> 100,> 100,> 100,> 100,> 100,> 100,–,> 100,> 100,–,> 100 µM,> 100,> 100,> 100,> 100,–
CC(C)[C@@H]1NC(=O)[C@H]2N=C(O[C@@H]2C)[C@@H]2CCCN2C(=O)[C@H](Cc2ccccc2)NC(=O)[C@@H]2CSC(=N2)[C@@H](Cc2ccccc2)NC(=O)[C@@H]2CSC1=N2,> 50,–,> 50,> 50,> 50,> 50,> 50,> 50,> 50,> 50,> 50,> 50 µM,> 50,> 50,> 50,> 50,–
CC1(CCC2C=CCC2)CCCNC1=S (stereo unspecified),> 10,> 10,> 10,> 10,–,> 10,> 10,–,> 10,> 10,> 10,> 10 µM,> 10,> 10,–,> 10,–
COc1ccc(NC(=O)C/C(C)=N\N=C(N)N)c([N+](=O)[O-])c1,> 100,48.8,> 100,> 100,> 100,> 100,> 100,–,> 100,> 100,–,> 100 µM,> 100,> 100,> 100,> 100,–
CN(C)CCCNC(=O)N/N=C/c1cccc([N+](=O)[O-])c1,> 100,–,> 100,> 100,–,> 100,> 100,–,> 100,> 100,–,–,> 100,> 100,–,> 100,–
CCO[C@]12C[C@H](OC)[C@@]3(O)CC(C1[C@H]3OCc1ccccc1)C13C4C2[C@H](OC)C1[C@](COC)(CN4CC)[C@H](O)C[C@@H]3OC (stereo partly specified),> 100,> 100,> 100,> 100,> 100,> 100,> 100,–,–,> 100,–,> 100 µM,–,> 100,–,> 100,–
COc1cc(OC)c(/C=C2\N=C(C)N(Nc3nnc(NN4C(=O)/C(=C/c5c(OC)cc(OC)cc5OC)N=C4C)c4ccccc34)C2=O)c(OC)c1,> 100,> 100,> 100,> 100,> 100,–,> 100,–,> 100,> 100,–,> 100 µM,–,> 100,–,> 100,–
C=C1CC2OC2(C(=O)O[C@H]2CCC3[C@@H]4CCC5=CC(=O)CC[C@]5(C)C4CC[C@@]32C)C1=O (stereo partly specified),18.2,7.65,17.8,43,15.5,15.1,16.6,–,32,18.1,45.1,48 µM,15.1,21.1,25,24.3,–
NNC(=O)c1ccc(-n2nnc(C(=O)NN)c2C(=O)NN)cc1,–,> 100,> 100,> 100,> 100,> 100,> 100,> 100,> 100,–,–,> 100 µM,> 100,> 100,> 100,> 100,–
COc1ccc(NC(=O)/C(=N\NC(=O)C[n+]2ccccc2)c2c(O)c3ccc(O)cc3oc2=O)c([N+](=O)[O-])c1,> 100,–,> 100,> 100,> 100,> 100,> 100,> 100,> 100,> 100,> 100,> 100 µM,> 100,> 100,> 100,> 100,–
